Structures can show the parent of a compound that is named as a salt.
How the values were obtained:
[1] = test system: rat brain synaptosomal preparation; test: Calcium uptake-inhibiting action: inhibition of potassium-stimulated 45Ca uptake in a rat brain synaptosomal preparation; format: biochemical, rat (Wistar); settings: rat brain cortex synaptosomes; 60 mM potassium chloride stimulation; 34° C.; incubation 20 seconds; pH 7.4; read-out: IC50 (50% inhibition of the stimulated 45Ca uptake)
Source text: The calcium uptake-inhibiting action of the novel compounds of formula (I) was studied on a rat brain synaptosomal preparation by using the method of P. H. Wu et al. [J. Neurochem. 39, 700 (1982)].
Wistar rats weighting 180 to 200 g were decapitated, their brains were collected in an ice-cold physiological saline solution, the cortex was removed and purified from the white substance. The tissue was homogenized in 10 volumes of 0.32M sucrose solution by using a glass-teflon potter. After centrifuging the homogenate at a rate of 1000×g at 4° C. for 10 minutes, the supernatant was further centrifuged at 10000×g for 20 minutes. The sediment was taken up in a 0.32M sucrose solution in such a way that the protein content of the preparation was adjusted to 20 mg/ml.
The medium (containing 112 mM of sodium chloride, 5 mM of potassium chloride, 1.3 mM of magnesium chloride, 1.2 mM of sodium dihydrogen phosphate, 1.2 mM of calcium chloride, 10 mM of glucose, 20 mM of IRIS buffer) used for the incubation was saturated with carbogen, consisting of 95% by volume of oxygen and 5% by volume of carbon dioxide, up to a pH of 7.4. After adding the test substances to the medium, the synaptosomal preparation was added in an amount corresponding to 1 mg of protein. The incubation was carried out in a final volume of 1 ml. The samples were pre-incubated at 34° C. for 20 minutes. The calcium uptake was begun by using a ^45 Cacl2 solution of 75 nCi activity. Potassium chloride used for investigating the potassium-induced ^45 Ca uptake was employed in 60 mM concentration whereas sodium chloride was added in the same concentration to the control samples. The incubation lasted 20 seconds. The reaction was stopped by 5 ml of a stopping solution containing 120 mM of sodium chloride, 5 mM of potassium chloride, 5 mM of EGTA and 20 mM of TRIS at pH 7.4. The samples were filtered through a Whatman GF/C filter paper and twice washed with 5 ml of a washing solution each, containing 132 mM of sodium chloride, 5 mM of potassium chloride, 1.3 mM of magnesium chloride, 1.2 mM of calcium chloride and 20 mM of IRIS at pH 7.4. (Abbreviations used above: TRIS means tris(hydroxymethyl)aminomethane; EGTA means ethylene glycol bis(β-aminoethyl) ether-N,N,N',N'-tetraacetic acid).
The filter papers were put into glass cuvets, 10 ml of a scintillation liquid each were added, then the radioactivity of the samples was measured in an 1219 Rackbeta (LKB Wallace) liquid scintillation spectrophotometer.
The IC50 values obtained by examination of the concentration/effect correlations are shown in Table I. IC50 value means the molar concentration of the test compounds which causes 50% inhibition of the stimulated ^45 Ca uptake.

[2] = test system: Male Hannover-Wistar rats; test: Potassium cyanide test: protective effect against histotoxic hypoxia; format: in vivo, rat (Hannover-Wistar); settings: Rattus norvegicus, po, read-out: ED50 p.o. (dose protecting half of the treated animals from the hypoxia)
CFLP mice = test: Antihypoxic effect: asphyxial action in closed glass cylinder (method of Caillard et al.), survival time; format: in vivo, mouse (CFLP); settings: 50 mg/kg oral, 60 minutes before test; n = 10; protected = surviving longer by 30% than average survival time of control group (23.5 ± 2.51 sec)
Method: The antiphypoxic effect was studied by using two methods. According to the method of C. Caillard et al. [Life Sci. 16, 1607 (1975)] the asphyxial action was determined after starvation for 16 hours on CFLP mice of both sexes weighting 24 to 26 g. Each animal was placed in a separate well-closed glass cylinder. The interval passing from closing the cylinder until the cessation of the last visible respiratory movement was registered as survival time. Animals, surviving longer by 30% than the average survival time of the control group, were considered to be protected. The test substances were administered in an oral dose of 50 mg/kg by 60 minutes before starting the examination.

Row | Structure (SMILES) | IC50 [1] [µM] | ED50 [2] [mg/kg] | Protected animals (CFLP mice) [%]
1 | C=C1N(CCCC)C(=O)OC12CCN(CCCC(c1ccc(F)cc1)c1ccc(F)cc1)CC2 [Compound 1, 1-Oxa-2-oxo-3-butyl-4-methylene-8-[4,4-bis(4-fluorophenyl)butyl]-3,8-diazaspiro[4,5]decane] | 5.8 | 40.9 | –
2 | C=C1N(C(C)(C)C)C(=O)OC12CCN(CCCC(c1ccc(F)cc1)c1ccc(F)cc1)CC2 [Compound 2, 1-Oxa-2-oxo-3-tert-butyl-4-methylene-8-[4,4-bis(4-fluorophenyl)butyl]-3,8-diazaspiro[4,5]decane] | 5.9 | 39.9 | –
3 | C=C1N(c2ccccc2)C(=O)OC12CCN(CCCC(c1ccc(F)cc1)c1ccc(F)cc1)CC2 [Compound 3, 1-Oxa-2-oxo-3-phenyl-4-methylene-8-[4,4-bis(4-fluorophenyl)butyl]-3,8-diazaspiro[4,5]decane] | 2.1 | – | –
4 | C=C1N(C2CCCCC2)C(=O)OC12CCN(CCCC(c1ccc(F)cc1)c1ccc(F)cc1)CC2 [Compound 4, 1-Oxa-2-oxo-3-cyclohexyl-4-methylene-8-[4,4-bis(4-fluorophenyl)butyl]-3,8-diazaspiro[4,5]decane] | 5.3 | 37.9 | –
5 | CCCCN1C(=O)OC2(CCN(CCCC(c3ccc(F)cc3)c3ccc(F)cc3)CC2)C1(C)O (stereo not drawn) [Compound 5, 1-Oxa-2-oxo-3-butyl-4-hydroxy-4-methyl-8-[4,4-bis(4-fluorophenyl)butyl]-3,8-diazaspiro[4,5]decane hydrochloride] | 6.1 | – | –
6 | CN1C(=O)OC2(CCN(CCc3ccc(F)cc3)CC2)C1(C)O (stereo not drawn) [Compound 6, 1-Oxa-2-oxo-3,4-dimethyl-4-hydroxy-8-[2-(4-fluorophenyl)ethyl]-3,8-diazaspiro[4,5]decane] | – | – | 60
7 | CCCN1C(=O)OC2(CCN(CCc3ccc(F)cc3)CC2)C1(C)O (stereo not drawn) [Compound 7, 1-Oxa-2-oxo-3-propyl-4-hydroxy-4-methyl-8-[2-(4-fluorophenyl)ethyl]-3,8-diazaspiro[4,5]decane] | – | – | 40
8 | CC1(O)N(C2CCCCC2)C(=O)OC12CCN(CCc1ccc(F)cc1)CC2 (stereo not drawn) [Compound 8, 1-Oxa-2-oxo-3-cyclohexyl-4-hydroxy-4-methyl-8-[2-(4-fluorophenyl)ethyl]-3,8-diazaspiro[4,5]decane] | – | – | 60
9 | CCN1C(=O)OC2(CCN(CCc3ccc(F)cc3)CC2)C1(C)O (stereo not drawn) [Compound 9, 1-Oxa-2-oxo-3-ethyl-4-hydroxy-4-methyl-8-[2-(4-fluorophenyl)ethyl]-3,8-diazaspiro[4,5]decane] | – | – | 60

Source: patent publication US5118687A, “1-oxa-2-oxo-8-azaspiro(4,5)decane derivatives, pharmaceutical compositions containing them and process for preparing same” (Richter Gedeon Vegyeszeti Gyar Rt., priority 1989, dated 1992)
